Assay results from patent US11845892B2, “Use of complex polyesteramines and polyester polyquaternary ammonium compounds as corrosion inhibitors” (Clariant International, Ltd., priority 2021, dated 2023).

Assay: Rotating Cage Autoclave Test (RCA), sour
Conditions: 150 ppm, 200 ppm H2S, 15% CO2, balance N2, 65° C., 70 bar, 72 hours, 1700 rpm
Description: In order to evaluate the corrosion inhibition efficacy of the polyesters according to the invention, 4 different test methods were employed: Linear Polarizing Resistance (LPR), Rotating Cylinder Electrode Test (RCE), Shell wheel test and High Pressure/High Temperature Rotating Cage Autoclave Test (RCA). For all testing 3.5% NaCl brine was used. For the application tests the materials to be tested (inventive as well as comparative) were diluted with butyl glycol to an active content of 25 wt.-% prior to testing. The dosage rates given in the tables refer to these 25 wt.-% active formulations.
Autoclaves equipped with rotating cages (RCA) were used to simulate high shear conditions for the purpose of evaluating system corrosivity and inhibitor performance. The testing solution consisted of 720 mL 3.5% NaCl brine and 80 mL LVT-200 oil. The synthetic brine had three cycles of vacuum/CO2 charge to the vessel prior to initiating the test to remove dissolved oxygen and to achieve an anaerobic system. Two weight loss corrosion coupons fixed on the rotating cage were used in each autoclave. General corrosion rates were calculated by weight loss measurement. A blank was run for comparison. Test conditions have been summarized below in Table 5.

N-tallow alkyl hexahydropyrimidinium ethoxylate methosulfate [sample 6]
Average corrosion rate [mpy]: 8.99 mpy | Percent protection: 92.8%
